Measured values reported in ChEMBL document CHEMBL1201862, “PubChem BioAssay data set” (2004).
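48-hour exposure; five concentrations; linearly interpolated endpoints. GI50 = concentration required for 50% inhibition of growth.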 Activity calls are given as the source filed them. No stated cut-off is given here; in the data, active = GI50 up to about 1.1 µM and inactive = higher.

Tests used:
Test in all cases: NCI tumour cell line growth inhibition, 48 h
786-0 = tested on: 786-0
A498 = tested on: A498
A549 = tested on: A549
ACHN = tested on: ACHN
BT-549 = tested on: BT-549
CAKI-1 = tested on: CAKI-1
CCRF-CEM = tested on: CCRF-CEM
COLO 205 = tested on: COLO 205
EKVX = tested on: EKVX
HCC 2998 = tested on: HCC 2998
HCT-116 = tested on: HCT-116
HCT-15 = tested on: HCT-15
HOP-62 = tested on: HOP-62
IGROV-1 = tested on: IGROV-1
KM12 = tested on: KM12
LOX IMVI = tested on: LOX IMVI
M14 = tested on: M14
MCF7 = tested on: MCF7
MDA-MB-231 = tested on: MDA-MB-231
MDA-MB-435 = tested on: MDA-MB-435
MDA-N = tested on: MDA-N
Malme-3M = tested on: Malme-3M
NCI-H226 = tested on: NCI-H226
NCI-H23 = tested on: NCI-H23
NCI-H460 = tested on: NCI-H460
NCI-H522 = tested on: NCI-H522
NCI/ADR-RES = tested on: NCI/ADR-RES
OVCAR-3 = tested on: OVCAR-3
OVCAR-4 = tested on: OVCAR-4
OVCAR-5 = tested on: OVCAR-5
OVCAR-8 = tested on: OVCAR-8
PC-3 = tested on: PC-3
RPMI-8226 = tested on: RPMI-8226
RXF 393 = tested on: RXF 393
SF-268 = tested on: SF-268
SF-295 = tested on: SF-295
SF-539 = tested on: SF-539
SK-MEL-28 = tested on: SK-MEL-28
SK-MEL-2 = tested on: SK-MEL-2
SK-MEL-5 = tested on: SK-MEL-5
SK-OV-3 = tested on: SK-OV-3
SN12C = tested on: SN12C
SNB-19 = tested on: SNB-19
SNB-75 = tested on: SNB-75
SW-620 = tested on: SW-620
T47D = tested on: T47D
TK-10 = tested on: TK-10
U-251 = tested on: U-251
UACC-257 = tested on: UACC-257
UO-31 = tested on: UO-31
DU-145 = tested on: DU-145
HL-60 = tested on: HL-60
HT-29 = tested on: HT-29
K562 = tested on: K562
MOLT-4 = tested on: MOLT-4
UACC-62 = tested on: UACC-62

For `Cc1cc2[nH]c3c(C#N)c(-c4ccccc4)c(/C=N/c4ccc(F)cc4)c(=O)n3c2cc1C`, the GI50 (786-0) was > 100 µM (inactive), the GI50 (A498) was > 100 µM (inactive) and the GI50 (A549) was 49 µM (inactive). For the same compound, the GI50 (ACHN) was > 100 µM (inactive), the GI50 (BT-549) was > 100 µM (inactive) and the GI50 (CAKI-1) was > 100 µM (inactive). For the same compound, the GI50 (CCRF-CEM) was > 100 µM (inactive), the GI50 (COLO 205) was > 100 µM (inactive) and the GI50 (EKVX) was > 100 µM (inactive). For the same compound, the GI50 (HCC 2998) was > 100 µM (inactive), the GI50 (HCT-116) was > 100 µM (inactive) and the GI50 (HCT-15) was over 100 µM. The GI50 (HOP-62) was > 100 µM (inactive), the GI50 (IGROV-1) was > 100 µM (inactive) and the GI50 (KM12) was 68.5 µM (inactive). For the same compound, the GI50 (LOX IMVI) was > 100 µM (inactive), the GI50 (M14) was > 100 µM (inactive) and the GI50 (MCF7) was 86.9 µM (inactive). The GI50 (MDA-MB-231) was > 100 µM (inactive), the GI50 (MDA-MB-435) was 91.2 µM (inactive) and the GI50 (MDA-N) was 59.7 µM (inactive). The GI50 (Malme-3M) was 76 µM (inactive), the GI50 (NCI-H226) was 69.7 µM (inactive) and the GI50 (NCI-H23) was > 100 µM (inactive). For the same compound, the GI50 (NCI-H460) was > 100 µM (inactive), the GI50 (NCI-H522) was 45.5 µM (inactive) and the GI50 (NCI/ADR-RES) was > 100 µM (inactive). For the same compound, the GI50 (OVCAR-3) was 39.4 µM (inactive), the GI50 (OVCAR-4) was > 100 µM (inactive) and the GI50 (OVCAR-5) was > 100 µM (inactive). The GI50 (OVCAR-8) was > 100 µM (inactive), the GI50 (PC-3) was > 100 µM (inactive) and the GI50 (RPMI-8226) was > 100 µM (inactive). The GI50 (RXF 393) was 91.2 µM (inactive), the GI50 (SF-268) was 99.5 µM (inactive) and the GI50 (SF-295) was 64.6 µM (inactive). For the same compound, the GI50 (SF-539) was > 100 µM (inactive), the GI50 (SK-MEL-28) was > 100 µM (inactive) and the GI50 (SK-MEL-2) was > 100 µM (inactive). For the same compound, the GI50 (SK-MEL-5) was > 100 µM (inactive), the GI50 (SK-OV-3) was > 100 µM (inactive) and the GI50 (SN12C) was > 100 µM (inactive). The GI50 (SNB-19) was 0.513 µM (active), the GI50 (SNB-75) was > 100 µM (inactive) and the GI50 (SW-620) was 62.5 µM (inactive). The GI50 (T47D) was 40.6 µM (inactive), the GI50 (TK-10) was > 100 µM (inactive) and the GI50 (U-251) was > 100 µM (inactive). The GI50 (UACC-257) was > 100 µM (inactive) and the GI50 (UO-31) was > 100 µM (inactive).
For `CCc1ccc2nc(-c3ccc(O)cc3)sc2c1`, the GI50 (A498) was 18 µM (inactive), the GI50 (A549) was 17.9 µM (inactive) and the GI50 (ACHN) was 17.7 µM (inactive). The GI50 (BT-549) was 16.3 µM (inactive), the GI50 (CAKI-1) was 12.4 µM (inactive) and the GI50 (COLO 205) was 15.3 µM (inactive). For the same compound, the GI50 (DU-145) was 15 µM (inactive), the GI50 (HCT-116) was 16.7 µM (inactive) and the GI50 (HCT-15) was 15.1 µM. For the same compound, the GI50 (HL-60) was 2.96 µM (inactive), the GI50 (HT-29) was 16.6 µM (inactive) and the GI50 (IGROV-1) was 14 µM (inactive). The GI50 (K562) was 19.6 µM (inactive), the GI50 (KM12) was 14.3 µM (inactive) and the GI50 (LOX IMVI) was 16.3 µM (inactive). For the same compound, the GI50 (M14) was 18.7 µM (inactive), the GI50 (MCF7) was 20.2 µM (inactive) and the GI50 (MDA-MB-231) was 13.2 µM (inactive). The GI50 (MDA-MB-435) was 19.2 µM (inactive), the GI50 (MDA-N) was 18.5 µM (inactive) and the GI50 (MOLT-4) was 13.6 µM (inactive). The GI50 (Malme-3M) was 17.3 µM (inactive), the GI50 (NCI-H226) was 13.2 µM (inactive) and the GI50 (NCI-H23) was 16.1 µM (inactive). For the same compound, the GI50 (NCI-H460) was 21.1 µM (inactive), the GI50 (NCI-H522) was 3.86 µM (inactive) and the GI50 (NCI/ADR-RES) was 13.5 µM (inactive). The GI50 (OVCAR-3) was 13.6 µM (inactive), the GI50 (OVCAR-5) was 15.3 µM (inactive) and the GI50 (OVCAR-8) was 19.5 µM (inactive). The GI50 (PC-3) was 12.6 µM (inactive), the GI50 (RPMI-8226) was 13.9 µM (inactive) and the GI50 (SF-268) was 17.4 µM (inactive). The GI50 (SF-295) was 16.8 µM (inactive), the GI50 (SF-539) was 11.7 µM (inactive) and the GI50 (SK-MEL-2) was 16.5 µM (inactive). The GI50 (SK-MEL-5) was 17.8 µM (inactive), the GI50 (SK-OV-3) was 16.7 µM (inactive) and the GI50 (SN12C) was 14.6 µM (inactive). For the same compound, the GI50 (SNB-19) was 14.7 µM (inactive), the GI50 (SW-620) was 20.6 µM (inactive) and the GI50 (TK-10) was 17.9 µM (inactive). The GI50 (U-251) was 17.7 µM (inactive), the GI50 (UACC-257) was 12.7 µM (inactive) and the GI50 (UACC-62) was 12.4 µM (inactive). The GI50 (UO-31) was 11.8 µM (inactive).
